# Experimental data as given in PMC11568214, “The impact of 9-azaglycophymine and phenylguanidine derivatives on the proliferation of various breast cancer cell lines in vitro and in vivo” (Scientific Reports, 2024).
# Tests used:
# 4T1 [1] = test: Crystal violet (CV) cell viability assay, IC50 determination; assay type: cell-based; conditions: Mus musculus, 72 h treatment, mean ± SD
# Description: (§1) For initial testing of the cytotoxic effect of the available glycophymine compounds (Table S2), cells were treated with compound in three concentrations: 1, 10 and 50 µM. Cells were seeded in 96-well plates and allowed to adhere overnight. Then they were treated for 72 h under standard culture conditions. […] For IC50 determination, the compounds were tested at seven concentrations (0.78, 1.56, 3.13, 6.25, 12.5, 25 and 50 µM). Subsequently, the cell viability was determined by using the crystal violet (CV) assay. Moreover, the selected compounds were tested against the mouse breast cancer cell line 4T1 (TNBC) as well. The compounds were prepared initially to obtain a stock solution of 20 mM in DMSO. Later, the working solutions were prepared by mixing the required amount of DMSO stock with the optimal medium for each cell line. The DMSO concentration in the final solution was always maintained lower than 0.5% to avoid any DMSO-derived side effects.
# (§2) For CV assays, after 72 h treatment, the treatment medium was discarded from the 96-well plates, and the cells were washed using 50 µL of PBS. Cells were fixed by adding 50 µL of 4% (v/v) paraformaldehyde (PFA) in PBS for 15 min at room temperature (RT). Afterwards, PFA was discarded, and the plates were dried for 15 min at RT. 50 µL of CV working solution (0.1% w/v CV in PBS) were added to the wells, followed by 15 min incubation at RT. Subsequently, the CV solution was discarded, and the plates were washed using aqua bidest. (ddH2O) to remove any remaining CV solution. The plates were left to dry overnight at RT, and then 50 µL of 33% (v/v) acetic acid in ddH2O were added to each well. Finally, the absorbance was measured at 570 nm by using a SpectraMax M5 plate reader (Molecular Devices, California, USA) and at 670 nm as background wavelength. […] Additionally, gefitinib, an approved EGFR inhibitor of the quinazoline family, was tested as anti-proliferative positive control. The data represent the mean ± standard deviation derived from three independent biological replicates. Dose–response curves were generated by four-parametric non-linear regression analysis using the GraphPad Prism software (version: 10.1, San Diego, CA, USA). Based on that, IC50 values and standard deviations were calculated for each replicate individually.
# BT-474 [2] = test: as above; assay type: cell-based; conditions: Homo sapiens, 72 h treatment, mean ± SD
# Description: as §1, §2
# HCC1937 [3] = test: as above; assay type: cell-based; conditions: Homo sapiens, 72 h treatment, mean ± SD
# Description: as §1, §2
# MCF-7 [4] = test: as above; assay type: cell-based; conditions: Homo sapiens, MCF7, 72 h treatment, mean ± SD
# Description: as §1, §2
# MDA-MB-468 [5] = test: as above; assay type: cell-based, human
# Description: as §1, §2
# 4T1 [6] = test: ROS production, DHR staining, flow cytometry; assay type: cell-based, mouse; design: key: ↑: induction; ↓: inhibition; ↔: no effect; conditions: 4T1, IC50 for 72 h
# Description: The cells were stained with CFSE (1 µM) in PBS containing 0.1% (v/v) FCS for 10 min. Afterwards, cells were washed with PBS, and then seeded with growth medium in 6-well plates. The plates were incubated for 24 h under standard culture conditions. […] Subsequently, the cells were detached using 0.5 mL of 0.05% (v/v) Trypsin–EDTA for 3 min at 37 °C. Then trypsin was deactivated by the addition of FCS-containing growth medium. The cell suspensions were collected, centrifuged for 3 min at 800 rpm, and the cell pellets were resuspended in fresh PBS. Finally, the samples were analyzed by using flow cytometry. For ROS production analyses, the procedure was performed exactly as described above for the cell division experiments, except that the CFSE staining solution was replaced by DHR staining solution resulting in 1 µM of DHR in PBS containing 0.1% (v/v) FCS[34],[35].
# BT-474 [7] = test: Apoptosis analysis, AnnV/PI staining, flow cytometry; assay type: cell-based, human; conditions: BT-474, IC50 for 72 h; control cells 20%
# Description: (§3) Cells were seeded in 6-well plates and incubated for 24 h under standard culture conditions. […] For apoptosis analyses, the cell suspension was centrifuged for 3 min at 800 rpm, and the cell pellet was stained by using 100 µL of AnnV/PI working solution (5 µL of AnnV, 2 µL of PI in 100 µL of PBS) for 15 min at RT and protected from light. The staining was terminated by the addition of 900 µL of annexin binding buffer. Finally, all samples were analyzed by using flow cytometry (FACSAria III, BD Biosciences, New Jersey, USA).
# HCC1937 [8] = test: as above; assay type: cell-based, human; conditions: HCC1937, IC50 for 72 h; control cells 19%
# Description: as §3
# MCF-7 [9] = test: as above; assay type: cell-based, human; conditions: MCF-7, IC50 for 72 h
# Description: as §3
# MDA-MB-468 [10] = test: as above; assay type: cell-based, human; conditions: MDA-MB-468, IC50 for 72 h
# Description: as §3
# [11] = tested on: 4T1 mouse breast cancer cells (TNBC); test: Syngeneic orthotopic 4T1 breast cancer model in BALB/c mice, tumor volume; assay type: in vivo
# From the text: Compound 19 was selected to be tested against a syngeneic breast cancer model induced by orthotopic inoculation of 4T1 mouse breast cancer cells (TNBC) into BALB/c mice. In that exploratory study, we aimed to investigate for the first time a proposed anticancer efficacy of that compound. For that purpose, three groups were included in the study, each comprising eight animals. The resulting total number of 24 animals aimed to avoid under- or overpowering of the study. The animals were kept under standard laboratory conditions with an ad libitum regime for food and water intake. 5 × 10^4 of 4T1 cells in 50 µL PBS were inoculated in the fourth right mammary fat pad of female mice at day 0. Anesthesia was induced using a combination of ketamine and xylazine at doses of 60 mg/kg and 7.5 mg/kg, respectively.
# On day 6, the mice were assigned to the study groups using a stratified randomization approach, ensuring that the mean tumor volumes were as similar as possible across all groups. The control group was treated with 400 µL of vehicle solution, the low dose compound 19 group with 5 mg/kg in 400 µL of vehicle, and the high dose group with […] in 400 µL of vehicle. The vehicle was 4% (v/v) DMSO in PBS, and the administration route was intraperitoneal (i.p.). The animals were treated daily on days 6–10 (starting from the day when tumors became palpable), 13–17 and day 20. Animals were visually examined daily, and urine samples were collected on the first and last day of treatment and analyzed by Multistix urine test stripes (Siemens Healthineers, Erlangen, Germany). On day 21 of the experiment, the mice were sacrificed using cervical dislocation. Following the sacrifice, the tumor diameters were measured using a caliper. The tumor volume (V) was then calculated using the formula V = L*W^2*0.52[36], where L represents the longest diameter and W the shortest diameter of the tumor.
smiles,measurement,setting,value
"O=c1[nH]c(Nc2ccc([N+](=O)[O-])cc2)nc2ccccc12 [Compound 19, 4′-nitro-9-aza-glycophymine]",IC50,4T1 [1],12.5 ± 3.7 µM
same,IC50,BT-474 [2],4 ± 0.2 µM
same,IC50,HCC1937 [3],4.3 ± 0.1 µM
same,IC50,MCF-7 [4],5.5 ± 0.6 µM
same,toxicity against MDA-MB-468 in comparison to gefitinib,"MDA-MB-468 [5]; 72 h, Fig. S12",nearly three times higher toxicity
same,IC50,"MDA-MB-468 [5]; Homo sapiens, MDA-MB-468, 72 h treatment, mean ± SD",5.8 ± 0.3 µM
same,ROS,4T1 [6],↔
same,percentage of apoptotic cells,BT-474 [7],51%
same,percentage of apoptotic cells,HCC1937 [8],47%
same,induction of apoptotic cell death,MCF-7 [9],did neither activate caspases nor apoptotic cell death
same,induction of apoptotic cell death,MDA-MB-468 [10],did neither activate caspases nor apoptotic cell death
same,reduction of the tumor volume compared to the control group,"[11]; 5 mg/kg i.p., day 21",30%
same,median tumor volume,"[11]; 5 mg/kg i.p., days 6–10, 13–17 and 20, measured day 21, control group 205 mm^3",143 mm^3
same,tumor suppression at the higher dose,"[11]; 20 mg/kg i.p., compared with 5 mg/kg",no further improvement of the tumor suppression was observed
